Measured values: ChEMBL document CHEMBL3885881, “DrugMatrix”

Species: Rattus norvegicus
Assay: DrugMatrix - Regimen: Daily Repeat
Type: toxicity, organism-based, Sprague-Dawley
Parameters: regimen Daily Repeat, gender Male, age 6-8 weeks
Conditions: in vivo, po, route oral GAVAGE, […]; for ABSOLUTE BASOPHIL / ABSOLUTE EOSINOPHIL / ABSOLUTE LYMPHOCYTE / ABSOLUTE MONOCYTE / ABSOLUTE SEGMENTED NEUTROPHIL / BASOPHIL / EOSINOPHIL / ERYTHROCYTE COUNT / HEMATOCRIT / HEMOGLOBIN / LEUKOCYTE COUNT / LYMPHOCYTE / MEAN CORPUSCULAR HEMOGLOBIN / MEAN CORPUSCULAR HEMOGLOBIN CONCENTRATION / MEAN CORPUSCULAR VOLUME / MONOCYTE / NEUTROPHIL / NUCLEATED RED BLOOD CELLS / PLATELET COUNT: tissue Blood; for ALANINE AMINOTRANSFERASE / ALBUMIN / ALKALINE PHOSPHATASE / ASPARTATE AMINOTRANSFERASE / BLOOD UREA NITROGEN / CARBON DIOXIDE / CHLORIDE / CHOLESTEROL / CREATINE PHOSPHOKINASE / CREATININE / GLUCOSE / LACTATE DEHYDROGENASE / LIPASE / PHOSPHORUS / POTASSIUM / SODIUM / TOTAL BILIRUBIN / TOTAL PROTEIN / URIC ACID: tissue Plasma
[1] = 10 mg/kg, 72 h, dose level Low, time 3 day
[2] = 10 mg/kg, 120 h, dose level Low, time 5 day
[3] = 50 mg/kg, 72 h, dose level High, time 3 day
[4] = 50 mg/kg, 120 h, dose level High, time 5 day

## CC(C)CC(N(C)C)C1(c2ccc(Cl)cc2)CCC1 (configuration not stated) [SIBUTRAMINE]
[1]
  ABSOLUTE BASOPHIL: 0 CELLS/uL
  ABSOLUTE EOSINOPHIL: 0 CELLS/uL
  ABSOLUTE LYMPHOCYTE: 16618.67 CELLS/uL
  ABSOLUTE MONOCYTE: 131.33 CELLS/uL
  ABSOLUTE SEGMENTED NEUTROPHIL: 1483.33 CELLS/uL
  BASOPHIL: 0%
  EOSINOPHIL: 0%
  ERYTHROCYTE COUNT: 5.37 x10E6/uL
  HEMATOCRIT: 34.23%
  HEMOGLOBIN: 13.53 G/DL
  LEUKOCYTE COUNT: 18.23 x10E3/uL
  LYMPHOCYTE: 91%
  MEAN CORPUSCULAR HEMOGLOBIN: 25.17 pg
  MEAN CORPUSCULAR HEMOGLOBIN CONCENTRATION: 39.53 G/DL
  MEAN CORPUSCULAR VOLUME: 63.67 fL
  MONOCYTE: 0.67%
  NEUTROPHIL: 8.33%
  NUCLEATED RED BLOOD CELLS: 0.33 /100WBC
  PLATELET COUNT: 1187.67 x10E3/uL
  ALANINE AMINOTRANSFERASE: 61.33 u/L
  ALBUMIN: 3.93 G/DL
  ALKALINE PHOSPHATASE: 368 u/L
  ASPARTATE AMINOTRANSFERASE: 88.33 u/L
  BLOOD UREA NITROGEN: 12 mg/dL
  CARBON DIOXIDE: 33 mmol/L
  CHLORIDE: 100.33 MEQ/L
  CHOLESTEROL: 70 mg/dL
  CREATINE PHOSPHOKINASE: 531.67 u/L
  CREATININE: 0.1 mg/dL
  GLUCOSE: 158.33 mg/dL
  LACTATE DEHYDROGENASE: 253.33 u/L
  LIPASE: 10.33 u/L
  PHOSPHORUS: 11.93 mg/dL
  POTASSIUM: 6.44 MEQ/L
  SODIUM: 140.57 MEQ/L
  TOTAL BILIRUBIN: 0.13 mg/dL
  TOTAL PROTEIN: 5.37 G/DL
  URIC ACID: 1.27 mg/dL
[2]
  ABSOLUTE BASOPHIL: 0 CELLS/uL
  ABSOLUTE EOSINOPHIL: 0 CELLS/uL
  ABSOLUTE LYMPHOCYTE: 12939.67 CELLS/uL
  ABSOLUTE MONOCYTE: 411.33 CELLS/uL
  ABSOLUTE SEGMENTED NEUTROPHIL: 1515.67 CELLS/uL
  BASOPHIL: 0%
  EOSINOPHIL: 0%
  ERYTHROCYTE COUNT: 5.44 x10E6/uL
  HEMATOCRIT: 33.73%
  HEMOGLOBIN: 13.47 G/DL
  LEUKOCYTE COUNT: 14.87 x10E3/uL
  LYMPHOCYTE: 86.67%
  MEAN CORPUSCULAR HEMOGLOBIN: 24.83 pg
  MEAN CORPUSCULAR HEMOGLOBIN CONCENTRATION: 39.93 G/DL
  MEAN CORPUSCULAR VOLUME: 62.2 fL
  MONOCYTE: 2.67%
  NEUTROPHIL: 10.67%
  NUCLEATED RED BLOOD CELLS: 0 /100WBC
  PLATELET COUNT: 1072.33 x10E3/uL
  ALANINE AMINOTRANSFERASE: 55.67 u/L
  ALBUMIN: 4.07 G/DL
  ALKALINE PHOSPHATASE: 363.67 u/L
  ASPARTATE AMINOTRANSFERASE: 79.33 u/L
  BLOOD UREA NITROGEN: 14 mg/dL
  CARBON DIOXIDE: 34.33 mmol/L
  CHLORIDE: 101.33 MEQ/L
  CHOLESTEROL: 72 mg/dL
  CREATINE PHOSPHOKINASE: 211.33 u/L
  CREATININE: 0.23 mg/dL
  GLUCOSE: 148.67 mg/dL
  LACTATE DEHYDROGENASE: 269 u/L
  LIPASE: 11 u/L
  PHOSPHORUS: 10.8 mg/dL
  POTASSIUM: 6.14 MEQ/L
  SODIUM: 143.2 MEQ/L
  TOTAL BILIRUBIN: 0.17 mg/dL
  TOTAL PROTEIN: 5.57 G/DL
  URIC ACID: 1.07 mg/dL
[3]
  ABSOLUTE BASOPHIL: 0 CELLS/uL
  ABSOLUTE EOSINOPHIL: 0 CELLS/uL
  ABSOLUTE LYMPHOCYTE: 12941.33 CELLS/uL
  ABSOLUTE MONOCYTE: 144.33 CELLS/uL
  ABSOLUTE SEGMENTED NEUTROPHIL: 2147.67 CELLS/uL
  BASOPHIL: 0%
  EOSINOPHIL: 0%
  ERYTHROCYTE COUNT: 5.65 x10E6/uL
  HEMATOCRIT: 35.8%
  HEMOGLOBIN: 14.6 G/DL
  LEUKOCYTE COUNT: 15.23 x10E3/uL
  LYMPHOCYTE: 85.33%
  MEAN CORPUSCULAR HEMOGLOBIN: 25.83 pg
  MEAN CORPUSCULAR HEMOGLOBIN CONCENTRATION: 40.8 G/DL
  MEAN CORPUSCULAR VOLUME: 63.37 fL
  MONOCYTE: 1%
  NEUTROPHIL: 13.67%
  NUCLEATED RED BLOOD CELLS: 0 /100WBC
  PLATELET COUNT: 1122.33 x10E3/uL
  ALANINE AMINOTRANSFERASE: 51.33 u/L
  ALBUMIN: 3.67 G/DL
  ALKALINE PHOSPHATASE: 417 u/L
  ASPARTATE AMINOTRANSFERASE: 96 u/L
  BLOOD UREA NITROGEN: 13 mg/dL
  CARBON DIOXIDE: 31.67 mmol/L
  CHLORIDE: 102.33 MEQ/L
  CHOLESTEROL: 68.67 mg/dL
  CREATINE PHOSPHOKINASE: 259.67 u/L
  CREATININE: 0.14 mg/dL
  GLUCOSE: 156.33 mg/dL
  LACTATE DEHYDROGENASE: 181 u/L
  LIPASE: 10 u/L
  PHOSPHORUS: 11.27 mg/dL
  POTASSIUM: 5.99 MEQ/L
  SODIUM: 144.97 MEQ/L
  TOTAL BILIRUBIN: 0.17 mg/dL
  TOTAL PROTEIN: 5.37 G/DL
  URIC ACID: 1.3 mg/dL
[4]
  ABSOLUTE BASOPHIL: 0 CELLS/uL
  ABSOLUTE EOSINOPHIL: 0 CELLS/uL
  ABSOLUTE LYMPHOCYTE: 16000.33 CELLS/uL
  ABSOLUTE MONOCYTE: 0 CELLS/uL
  ABSOLUTE SEGMENTED NEUTROPHIL: 833 CELLS/uL
  BASOPHIL: 0%
  EOSINOPHIL: 0%
  ERYTHROCYTE COUNT: 5.75 x10E6/uL
  HEMATOCRIT: 36.37%
  HEMOGLOBIN: 14.3 G/DL
  LEUKOCYTE COUNT: 16.83 x10E3/uL
  LYMPHOCYTE: 95%
  MEAN CORPUSCULAR HEMOGLOBIN: 24.9 pg
  MEAN CORPUSCULAR HEMOGLOBIN CONCENTRATION: 39.33 G/DL
  MEAN CORPUSCULAR VOLUME: 63.37 fL
  MONOCYTE: 0%
  NEUTROPHIL: 5%
  NUCLEATED RED BLOOD CELLS: 0 /100WBC
  PLATELET COUNT: 1265 x10E3/uL
  ALANINE AMINOTRANSFERASE: 57.33 u/L
  ALBUMIN: 4.07 G/DL
  ALKALINE PHOSPHATASE: 391.67 u/L
  ASPARTATE AMINOTRANSFERASE: 95.67 u/L
  BLOOD UREA NITROGEN: 14.67 mg/dL
  CARBON DIOXIDE: 30 mmol/L
  CHLORIDE: 102 MEQ/L
  CHOLESTEROL: 56 mg/dL
  CREATINE PHOSPHOKINASE: 585 u/L
  CREATININE: 0.11 mg/dL
  GLUCOSE: 164 mg/dL
  LACTATE DEHYDROGENASE: 175.33 u/L
  LIPASE: 9.67 u/L
  PHOSPHORUS: 12.43 mg/dL
  POTASSIUM: 6.27 MEQ/L
  SODIUM: 142.13 MEQ/L
  TOTAL BILIRUBIN: 0.1 mg/dL
  TOTAL PROTEIN: 5.6 G/DL
  URIC ACID: 1.73 mg/dL
